# In US20260232851A1, “METHODS FOR THE DETECTION AND DIAGNOSIS OF CANCERS ASSOCIATED WITH OVEREXPRESSION OF PSMA RECEPTOR” (CLARITY PHARMACEUTICALS LIMITED, priority 2023, published 2026):
# Entries after “also recorded” stand apart in the source; their conditions may differ. Marks after values point to notes of the source that are not given here.
# Tests used:
# [1] = system: LNCap tumor; test: Ex vivo tumor uptake in LNCap tumor bearing NSG mice
# Description: Ex vivo tumor uptake expressed as percentage injected activitiy per gram of tissue (% lAg) (mean±/−SEM, n=3/group) in LNCap tumor bearing NSG mice following injection of either monomeric [^64Cu]Cu-SarPSMA (2 MBq, 0.9 nmol of peptide) or dimeric [^64Cu]Cu-Sar-bisPSMA (2 MBq, 0.2 nmol of peptide).
# [2] = molecular target: T1, PSMA receptor (Homo sapiens, UniProt Q04609); test: PET/CT lesion intensity (SUVmax, SUVmean, TTBR) in patients with untreated primary prostate cancer; format: in vivo; conditions: for SUVmax Median Difference / SUVmean Median Difference / TTBR Median Difference: ^64Cu vs ^68Ga; for Tumor to background ratio compared between ^64Cu-Sar-bisPSMA and ^68Ga-PSMA-11 (words): concordant lesions, FIG. 6; for Tumor to background ratio compared between ^64Cu-Sar-bisPSMA and ^68Ga-PSMA-11 (words) / SUVmean of lesions compared between ^64Cu-Sar-bisPSMA and ^68Ga-PSMA-11 (words) / SUVmax of lesions compared between ^64Cu-Sar-bisPSMA and ^68Ga-PSMA-11 (words): two readers; for SUVmean of lesions compared between ^64Cu-Sar-bisPSMA and ^68Ga-PSMA-11 (words) / SUVmax of lesions compared between ^64Cu-Sar-bisPSMA and ^68Ga-PSMA-11 (words): same subjects; for SUVmean of lesions compared between ^64Cu-Sar-bisPSMA and ^68Ga-PSMA-11 (words): FIG. 5; for SUVmax of lesions compared between ^64Cu-Sar-bisPSMA and ^68Ga-PSMA-11 (words): FIGS. 2, 4
# T1 construct: localises at sites that overexpress the PSMA receptor and are indicative of a cancer; from tissue; host or cells: Primary prostate cancer and metastatic lesions (lymph node, bone, prostatic bed) in living patients
# T1 sequence (Q04609 whole entry): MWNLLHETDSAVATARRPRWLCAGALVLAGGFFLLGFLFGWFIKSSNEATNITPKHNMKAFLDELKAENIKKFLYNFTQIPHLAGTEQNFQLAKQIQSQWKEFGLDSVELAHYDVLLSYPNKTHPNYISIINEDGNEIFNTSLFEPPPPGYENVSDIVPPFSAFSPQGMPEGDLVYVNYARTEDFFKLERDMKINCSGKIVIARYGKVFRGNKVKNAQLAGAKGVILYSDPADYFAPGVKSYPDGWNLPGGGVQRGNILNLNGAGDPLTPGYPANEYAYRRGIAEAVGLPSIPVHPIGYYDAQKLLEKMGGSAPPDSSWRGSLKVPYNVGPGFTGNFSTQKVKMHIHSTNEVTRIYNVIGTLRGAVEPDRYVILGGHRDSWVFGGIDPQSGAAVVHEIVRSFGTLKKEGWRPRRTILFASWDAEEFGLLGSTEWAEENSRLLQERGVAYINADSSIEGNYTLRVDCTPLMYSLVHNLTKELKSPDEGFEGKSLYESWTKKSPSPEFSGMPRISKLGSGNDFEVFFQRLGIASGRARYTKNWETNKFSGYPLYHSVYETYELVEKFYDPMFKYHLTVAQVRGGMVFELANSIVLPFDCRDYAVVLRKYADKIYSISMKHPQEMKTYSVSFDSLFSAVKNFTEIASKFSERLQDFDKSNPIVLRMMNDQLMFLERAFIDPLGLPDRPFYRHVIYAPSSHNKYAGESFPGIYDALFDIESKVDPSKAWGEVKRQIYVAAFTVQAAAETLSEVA
# Description: (§1) Patients with untreated, histopathology-proven, intermediate- to high-risk PC, planned for radical prostatectomy underwent ^68Ga-PSMA-11 PET/CT per institutional practice and were subsequently allocated to 1 out of 3 dose cohorts (1:1:3) to receive either 100 MBq, 150 MBq or 200 MBq of ^64Cu-SAR-bisPSMA, respectively. The specified dose of ^64Cu-Sar-bisPSMA was administered to each patient as a single bolus IV injection. […] PET/CT scans at other times after injection of the compound were acquired as required.
# (§2) Patients were scanned using the standard clinical whole-body PET/CT acquisition protocol defined for each clinical site and in accordance with the Image Acquisition Manual, which contains details of scan acquisition, processing parameters and quality assurance procedures. The same scanner was used for each visit. Typical imaging acquisition parameters are below:
# (§3) Two independent, blinded, central readers assessed the detection of primary PC on the 200 MBq ^64Cu-SAR-bisPSMA PET/CTs as the primary endpoint. To compare the intensity of lesions on ^68Ga-PSMA-11 and ^64Cu-SAR-bisPSMA PET, both readers determined the SUVs (SUVmax, SUVmean) and tumour-to-background ratio (ratio of lesion SUVmax and background SUVmean) in up to 5 concordant lesions between ^68Ga-PSMA-11 and ^64Cu-SAR-bisPSMA PET/CT as an exploratory endpoint.
# Tables 1 and 2 below compare SUV parameters obtained from PET/CT images after administration of ^68Ga-PSMA-11 and a dose of 200 MBq of ^64Cu-SAR-bisPSMA from each reader.
# Tables 3 and 4 below compare SUV parameters obtained from PET/CT images after administration of ^68Ga-PSMA-11 (200 MBq) and ^64Cu-SAR-bisPSMA (200 MBq) from each reader.
# [3] = molecular target: T1, PSMA receptor; test: Blinded central reader detection of primary prostate cancer and lesions on PET/CT; format: in vivo; conditions: for % TPR (True Positive Rate), detection of primary prostate cancer: 200 MBq ^64Cu-Sar-bisPSMA; for % FNR (False Negative Rate): indeterminate results analysed as negative; for Detection of secondary lesion in lymph node by PET/CT (FIG. 3): same subject imaged with both tracers
# Description: as §1, §2, §3
# Table 5 compares the number of positive, negative and indeterminate images as assessed by each reader. Reader 1 detected primary prostate cancer in 100% of patients to whom 200 MBq of ^64Cu-Sar-bisPSMA was administered, while Reader 2 detected 85.7% of patients. This is in contrast to 77.8% and 83.3%, respectively, when ^68Ga-PSMA-11 was administered.
# The number of lesions detected by each reader with imaging by either ^64Cu-Sar-bisPSMA or ^68Ga-PSMA-11 was evaluated. For both readers, the total number of lesions, the mean and median number of lesions detected as a result of imaging by ^64Cu-Sar-bisPSMA was higher when compared with imaging by ^68Ga-PSMA-11, with the difference in these values being statistically significant.
# [4] = Table 1, first reader, 200 MBq ^64Cu-SAR-bisPSMA, N=17
# [5] = Table 2, second reader, 200 MBq ^64Cu-SAR-bisPSMA, N=13
# [6] = Reader 1, 200 MBq cohort, scans/evaluable scans
# [7] = Reader 2, 200 MBq cohort, 4 ^64Cu scans excluded as non-evaluable
substance,measurement,setting,value
Sar-bisPSMA [^64Cu-SAR-bisPSMA],Amount retained at the tumor site relative to ^64Cu-SarPSMA (FIG. 1),[1]; 6 and 24 hours after administration,far greater
same,Ex vivo tumor uptake relative to monomeric ^64Cu-Sar-PSMA (FIG. 1),"[1]; 1 hour after administration, 2 MBq, n=3/group",approximately double
same,"Uptake and retention at tumors, dimer versus monomer (FIG. 1)","[1]; mouse, in vivo",higher uptake and retention
same,SUVmax Max,[2]; [4],100
same,SUVmax Median,[2]; [4],31.40
same,SUVmax Min,[2]; [4],8
same,SUVmean Max,[2]; [4],69.9
same,SUVmean Mean,[2]; [4],27.25
same,SUVmean Median,[2]; [4],21.76
same,SUVmean Min,[2]; [4],5.5
same,TTBR (Tumour-to-Background Ratio) Mean,[2]; [4],77.25
same,TTBR Max,[2]; [4],227.3
same,TTBR Median,[2]; [4],49.07
same,TTBR Min,[2]; [4],10.3
same,SUVmax Median Difference,"[2]; Table 1, first reader, N=17",14.85
same,SUVmean Median Difference,"[2]; Table 1, first reader, N=17",9.64
same,TTBR Median Difference,"[2]; Table 1, first reader, N=17",27.15
same,SUVmax Mean,"[2]; Table 1, first reader, ^68Ga-PSMA-11 vs 200 MBq ^64Cu-SAR-bisPSMA PET/CT, concordant lesions averaged per participant, N=17",40.28
same,SUVmax Max,[2]; [5],100
same,SUVmax Median,[2]; [5],41.00
same,SUVmax Min,[2]; [5],6.1
same,SUVmean Max,[2]; [5],69.9
same,SUVmean Mean,[2]; [5],31.78
same,SUVmean Median,[2]; [5],28.07
same,SUVmean Min,[2]; [5],4.4
same,TTBR (Tumour-to-Background Ratio) Mean,[2]; [5],86.40
same,TTBR Max,[2]; [5],212.8
same,TTBR Median,[2]; [5],76.34
same,TTBR Min,[2]; [5],6.7
same,SUVmax Median Difference,"[2]; Table 2, second reader, N=13",27.03
same,SUVmean Median Difference,"[2]; Table 2, second reader, N=13",18.44
same,TTBR Median Difference,"[2]; Table 2, second reader, N=13",45.37
same,SUVmax Mean,"[2]; Table 2, second reader, ^68Ga-PSMA-11 vs 200 MBq ^64Cu-SAR-bisPSMA PET/CT, concordant lesions averaged per participant, N=13",47.37
same,SUVmax Max,"[2]; Table 3, first reader, N=28",100.00
same,SUVmax Median,"[2]; Table 3, first reader, N=28",30.26
same,SUVmax Min,"[2]; Table 3, first reader, N=28",8.00
same,SUVmean Max,"[2]; Table 3, first reader, N=28",69.90
same,SUVmean Mean,"[2]; Table 3, first reader, N=28",27.41
same,SUVmean Median,"[2]; Table 3, first reader, N=28",21.20
same,SUVmean Min,"[2]; Table 3, first reader, N=28",5.40
same,TTBR (Tumour-to-Background Ratio) Mean,"[2]; Table 3, first reader, N=28",83.38
same,TTBR Max,"[2]; Table 3, first reader, N=28",294.10
same,TTBR Median,"[2]; Table 3, first reader, N=28",53.55
same,TTBR Min,"[2]; Table 3, first reader, N=28",10.30
same,SUVmax Median Difference,"[2]; Table 3, first reader, N=28",14.23
same,SUVmean Median Difference,"[2]; Table 3, first reader, N=28",9.26
same,TTBR Median Difference,"[2]; Table 3, first reader, N=28",27.94
same,SUVmax Mean,"[2]; Table 3, first reader, ^68Ga-PSMA-11 (200 MBq) vs ^64Cu-SAR-bisPSMA (200 MBq) PET/CT, lesions averaged per participant, N=28",41.66
same,SUVmax Max,"[2]; Table 4, second reader, N=16",100
same,SUVmax Median,"[2]; Table 4, second reader, N=16",41.66
same,SUVmax Min,"[2]; Table 4, second reader, N=16",6.1
same,SUVmean Max,"[2]; Table 4, second reader, N=16",69.9
same,SUVmean Mean,"[2]; Table 4, second reader, N=16",33.24
same,SUVmean Median,"[2]; Table 4, second reader, N=16",28.4
same,SUVmean Min,"[2]; Table 4, second reader, N=16",4.4
same,TTBR (Tumour-to-Background Ratio) Mean,"[2]; Table 4, second reader, N=16",93.86
same,TTBR Max,"[2]; Table 4, second reader, N=16",243.9
same,TTBR Median,"[2]; Table 4, second reader, N=16",78.37
same,TTBR Min,"[2]; Table 4, second reader, N=16",6.7
same,SUVmax Median Difference,"[2]; Table 4, second reader, N=16",27.99
same,SUVmean Median Difference,"[2]; Table 4, second reader, N=16",18.78
same,TTBR Median Difference,"[2]; Table 4, second reader, N=16",46.93
same,SUVmax Mean,"[2]; Table 4, second reader, ^68Ga-PSMA-11 (200 MBq) vs ^64Cu-SAR-bisPSMA (200 MBq) PET/CT, lesions averaged per participant, N=16",49.73
same,Tumor to background ratio compared between ^64Cu-Sar-bisPSMA and ^68Ga-PSMA-11 (words),[2]; listed as 64Cu-Sar-bisPSMA,higher
same,Tumor to background ratio compared between ^64Cu-Sar-bisPSMA and ^68Ga-PSMA-11 (words),[2]; listed as 64Cu-SarbisPSMA,higher tumour to background ratio
same,SUVmean of lesions compared between ^64Cu-Sar-bisPSMA and ^68Ga-PSMA-11 (words),[2],consistently higher
same,SUVmean of lesions compared between ^64Cu-Sar-bisPSMA and ^68Ga-PSMA-11 (words),[2]; listed as 64Cu-Sar-bis-PSMA,higher SUVmean
same,SUVmean of lesions compared between ^64Cu-Sar-bisPSMA and ^68Ga-PSMA-11 (words),[2]; listed as 64Cu-Sar-bisPSMA,greater
same,SUVmax of lesions compared between ^64Cu-Sar-bisPSMA and ^68Ga-PSMA-11 (words),[2],consistently higher
same,SUVmax of lesions compared between ^64Cu-Sar-bisPSMA and ^68Ga-PSMA-11 (words),[2]; listed as 64Cu-Sar-bisPSMA,higher SUVmax; also recorded: greater
same,SUVmax of lesions compared between ^64Cu-Sar-bisPSMA and ^68Ga-PSMA-11 (words),[2]; listed as 64Cu-SarbisPSMA,higher SUVmax
same,Mean Difference in number of lesions (^64Cu − ^68Ga),"[3]; 200 MBq Cohort, Reader 1",0.28
same,Mean Number of Lesions per Participant,"[3]; 200 MBq Cohort, Reader 1",2.3
same,Median Difference in number of lesions (^64Cu − ^68Ga),"[3]; 200 MBq Cohort, Reader 1",0.0
same,Median Number of Lesions per Participant,"[3]; 200 MBq Cohort, Reader 1",2
same,Total # of Lesions Detected (all participants),"[3]; 200 MBq Cohort, Reader 1",41
same,Mean Difference in number of lesions (^64Cu − ^68Ga),"[3]; 200 MBq Cohort, Reader 2",0.64
same,Mean Number of Lesions per Participant,"[3]; 200 MBq Cohort, Reader 2",2.2
same,Median Difference in number of lesions (^64Cu − ^68Ga),"[3]; 200 MBq Cohort, Reader 2",0.0
same,Median Number of Lesions per Participant,"[3]; 200 MBq Cohort, Reader 2",2
same,Total # of Lesions Detected (all participants),"[3]; 200 MBq Cohort, Reader 2",31
same,Mean Difference in number of lesions (^64Cu − ^68Ga),"[3]; All Cohorts, Reader 1 (N = 29)",0.41
same,Mean Number of Lesions per Participant,"[3]; All Cohorts, Reader 1 (N = 29)",2.2
same,Median Difference in number of lesions (^64Cu − ^68Ga),"[3]; All Cohorts, Reader 1 (N = 29)",0.0
same,Median Number of Lesions per Participant,"[3]; All Cohorts, Reader 1 (N = 29)",2
same,Total # of Lesions Detected (all participants),"[3]; All Cohorts, Reader 1 (N = 29)",63
same,Mean Difference in number of lesions (^64Cu − ^68Ga),"[3]; All Cohorts, Reader 2 (N = 17)",0.52
same,Mean Number of Lesions per Participant,"[3]; All Cohorts, Reader 2 (N = 17)",2
same,Median Difference in number of lesions (^64Cu − ^68Ga),"[3]; All Cohorts, Reader 2 (N = 17)",0.0
same,Median Number of Lesions per Participant,"[3]; All Cohorts, Reader 2 (N = 17)",4
same,Total # of Lesions Detected (all participants),"[3]; All Cohorts, Reader 2 (N = 17)",34
same,"% TPR (True Positive Rate), detection of primary prostate cancer",[3]; Reader 1,100.0%
same,Positive images (primary prostate cancer),"[3]; Reader 1, 200 MBq ^64Cu-Sar-bisPSMA cohort, scans/evaluable scans",18/18
same,"% TPR (True Positive Rate), detection of primary prostate cancer","[3]; Reader 1, listed as 64Cu-Sar-bisPSMA",100%
same,Indeterminate images,[3]; [6],0/18
same,Negative images,[3]; [6],0/18
same,% FNR (False Negative Rate),[3]; Reader 1,0.0%
same,"% TPR (True Positive Rate), detection of primary prostate cancer",[3]; Reader 2,85.7%
same,Indeterminate images,[3]; [7],2/14*
same,Negative images,[3]; [7],0/14*
same,Positive images (primary prostate cancer),[3]; [7],12/14*
same,% FNR (False Negative Rate),[3]; Reader 2,14.3%
same,"Total, mean and median number of lesions detected compared with ^68Ga-PSMA-11",[3]; both readers,higher
same,Detection of secondary lesion in lymph node by PET/CT (FIG. 3),[3],Detection of a secondary lesion
same,Detection of secondary lesion in lymph node by PET/CT (FIG. 3),[3]; listed as compound of Formula (I) complexed with ^64Cu,clearly identifies a lesion
